Measurements published in ChEMBL document CHEMBL1132463, “Metabolism-based brain-targeting system for a thyrotropin-releasing hormone analogue” (1999).
Square brackets hold non-standard residues; d marks the D form. Peptide text beside a SMILES is read from it. * marks the point of attachment. Nicotinoyl(1-Me-1,4-dihydro) = CN1C=CCC(C(=O)*)=C1; X1 = CC(C)CCC(C)C1CCC2C3CC=C4CC(O*)CCC4(C)C3CCC12C; pGlu = O=C1CC[C@@H](C(=O)O)N1

System: Mus musculus
Test: Barbiturate-induced sleeping time in mice after the administration of the compound
Type: functional

SMILES	Sleeping time
CC(C)C[C@H](NC(=O)[C@@H]1CCC(=O)N1)C(=O)N1CCC[C@H]1C(N)=O ([pGlu]-Leu-Pro-NH2)	45.5 min
CC(C)CCC(C)C1CCC2C3CC=C4CC(OC(=O)CNC(=O)[C@@H]5CCCN5C(=O)[C@H](CC(C)C)NC(=O)[C@H](CCC(N)=O)NC(=O)[C@H](C)NC(=O)[C@H](C)NC(=O)C5=CN(C)C=CC5)CCC4(C)C3CCC12C (some centres not stated) ({Nicotinoyl(1-Me-1,4-dihydro)}-AAQLPG-X1)	37 min
CC(C)CCC(C)C1CCC2C3CC=C4CC(OC(=O)CNC(=O)[C@@H]5CCCN5C(=O)[C@H](CC(C)C)NC(=O)[C@H](CCC(N)=O)NC(=O)[C@@H]5CCCN5C(=O)[C@H](C)NC(=O)C5=CN(C)C=CC5)CCC4(C)C3CCC12C (some centres not stated) ({Nicotinoyl(1-Me-1,4-dihydro)}-APQLPG-X1)	35 min
CC(C)CCC(C)C1CCC2C3CC=C4CC(OC(=O)CNC(=O)[C@@H]5CCCN5C(=O)[C@H](CC(C)C)NC(=O)[C@H](CCC(N)=O)NC(=O)[C@H](C)NC(=O)C5=CN(C)C=CC5)CCC4(C)C3CCC12C (some centres not stated) ({Nicotinoyl(1-Me-1,4-dihydro)}-AQLPG-X1)	38 min
CC(C)CCC(C)C1CCC2C3CC=C4CC(OC(=O)CNC(=O)[C@@H]5CCCN5C(=O)[C@H](CC(C)C)NC(=O)[C@H](CCC(N)=O)NC(=O)[C@H](C)NC(=O)[C@@H]5CCCN5C(=O)C5=CN(C)C=CC5)CCC4(C)C3CCC12C (some centres not stated) ({Nicotinoyl(1-Me-1,4-dihydro)}-PAQLPG-X1)	24.3 min
CC(C)CCC(C)C1CCC2C3CC=C4CC(OC(=O)CNC(=O)[C@@H]5CCCN5C(=O)[C@H](CC(C)C)NC(=O)[C@H](CCC(N)=O)NC(=O)[C@@H]5CCCN5C(=O)[C@@H]5CCCN5C(=O)C5=CN(C)C=CC5)CCC4(C)C3CCC12C (some centres not stated) ({Nicotinoyl(1-Me-1,4-dihydro)}-PPQLPG-X1)	26.8 min
CC(C)CCC(C)C1CCC2C3CC=C4CC(OC(=O)CNC(=O)[C@@H]5CCCN5C(=O)[C@H](CC(C)C)NC(=O)[C@H](CCC(N)=O)NC(=O)[C@@H]5CCCN5C(=O)C5=CN(C)C=CC5)CCC4(C)C3CCC12C (some centres not stated) ({Nicotinoyl(1-Me-1,4-dihydro)}-PQLPG-X1)	29.2 min
